According to patent publication US20180249717A1, “HOUSE DUST MITE ALLERGY PROTEIN REMOVER, AND COMPOSITION THEREOF” (AYJ BIO LAB INC., priority 2015, published 2018):

Assays:
[1] = tested on: Dermatophagoides farina house dust mite proteins; test: Dot-blot immunoassay for human-specific IgE reactivity (inhibition of allergenicity); format: binding; design: unit not given here; conditions: 500 μg each, allergic patient's serum IgE
Method: (§1) In addition, a dot-blot immunoassay for human-specific IgE reactivity was performed, as described previously [Tsai, L. C., Y. C. Sun, P. L. Chao, M. W. Hung, I. C. Kuo, et al. 2000. Protein sequence analysis and mapping of IgE and IgG epitopes of an allergenic 98 kDa Dermatophagoides farinae paramyosin, Der f 11. Allergy 55: 141147]. House dust mite proteins (10 μg) were applied to a PVDF membrane using a Hybri-Dot Manifold (Life Technologies, Gaithersburg, Md.) according to the manufacturer's instructions. After blocking with 0.1% PBS-T containing 5% skim milk, the membrane was incubated with 1:500 diluted allergic patient's antiserum at 4° C. overnight. After washing with 0.1% PBS-T three times, the membrane was incubated with 1:20000 diluted goat anti-human IgG (H+L)-HRP and IgE-HRP conjugate (Zymed Laboratories, Sanfrancisco, Calif.) for 1 hr at 25±1° C. The essential oils and compounds (500 μg each) were tested with the patient's serum which was diluted 1:250, and then incubated 1:5000 diluted IgE-HRP conjugate antibodies. After additional washing, as stated previously, the blot was incubated with ECL chemiluminescence reagent for 1 min and exposed to X-ray films for 5-20 min at room temperature. The intensity of the IgE-reacting dot was determined using a Bio-Rad Gel Doc XR image analyzer, as stated previously. Tannic acid served as a standard reference and was similarly formulated.
(§2) The reference numerals used in FIG. 2 indicate the following: C: untreated control; T: tannic acid; 1: spearmint essential oil; 2: Summer savory essential oil; 3: Oregano essential oil; 4: Carrot seed essential oil; 5: Catnip essential oil; 6: Mandarin essential oil; 7: Lime essential oil; and 8: Celery essential oil.
(§3) The inhibitory activities of the above-described plant essential oils and compounds against the allergenicity of two species of house dust mite proteins are shown in Tables 9 and 10 below, respectively. […]

[2] = tested on: house dust mite proteins (two major HDM allergens group 1 and 2); test: SDS-PAGE denaturing/neutralizing activity against house dust mite proteins; format: biochemical; design: key: +++: comparable to or higher than the activity of the positive control tannic acid; ++: neutralizing activity somewhat lower than that of the positive control; conditions: compounds; incubated with mite proteins 1 hr at 25 C; relative to tannic acid
Description: Adult mites (both sexes, 6-8 days old) were extracted, as described previously [Nakada, S., K. Ito, C. Urata, Y. Sakamoto, M. Hasegawa, T. Nakagawa & T. Miyamoto. 1985. Allergenecity and immunogenicity of house-dust mite (Dermatophagoides farinae) antigens treated with glutaraldehyde. Ann. Allergy 54: 437441; Tovey, E. R. & B. A. Baldo. 1987. Comparison by electroblotting of IgE-binding components in ectracts of house dust mite bodies and spent mite culture. J. Allergy Clin. Immunol. 79: 93102.]. In brief, whole bodies (80 mg fresh weight/4 mL buffer) were homogenized on ice in 0.01 M phosphate-buffered saline (PBS) (pH 7.4) for 15 min. The homogenate was then stirred at 0° C. for 1 hr, centrifuged for 30 min at 14000 g, and concentrated by ultrafiltration to 1 mg/mL of protein.
The protein content was determined using a Bradford protein assay kit (Pierce, Rockford, Ill.). Bovine serum albumin (Pierce, Rockford, Ill.) was used as the standard. Precision Plus Protein Standards was supplied by Bio-Rad (Hercules, Calif.).
SDS-PAGE was performed according to the modified method of Laemmli [Laemmli, U.K. 1970. Cleavage of structural proteins during the assembly of the head of bacteriophage T4. Nature 227: 680685]. Based on the preliminary test results, mixtures of mite proteins ([…]) and each test material ([…]) in 4.5 μL of dimethyl sulfoxide (DMSO) were incubated for 1 hr at 25±1° C. Negative controls consisted of 4.5 μL of DMSO. Tannic acid or 3% tannic acid solution served as a positive control and was similarly formulated. Samples were mixed with an equal volume of SDS sample buffer (4% SDS, 4% mercaptoethanol, and 100 mM Tris-HCl, pH 8.0), boiled for 10 min, and resolved by electrophoresis on 12% (w/v) polyacrylamide gels by using a Mini-Protean 3 electrophoresis cell (Bio-Rad, Hercules, Calif.). After electrophoresis at 120 V for 80 min, the gels were stained with 0.1% Coomassie brilliant blue R-250 for quantification. The intensity of denaturing activity of each test material toward the two major HDM allergens group 1 and 2 was determined using a Gel Doc XR image analyzer with Quantity One Software (Bio-Rad, Hercules, Calif.) according to the manufacturer's instructions.
In FIG. 1, lane M represents a protein marker; land Ext represents a negative control loaded only with untreated house dust mite protein; lanes 5 and 6 indicate moderate activity; lanes 1, 2, 3 and 4 indicate strong activity; and lane TA represents a positive control treated with tannic acid.
Plant essential oils and compounds, confirmed to have neutralizing activity against house dust mites in the above experiments, are summarized in Tables 7 and 8 below, respectively.

[3] = tested on: Dermatophagoides pteronyssinus house dust mite proteins; test: Dot-blot immunoassay for human-specific IgE reactivity (inhibition of allergenicity); format: binding; conditions: 500 μg each, allergic patient's serum IgE
Method: as §1, §2, §3

[4] = tested on: adult American house dust mites (Dermatophagoides farina); test: Spray bioassay of spray formulations (acaricidal activity); format: in vivo; conditions: sprayed on cotton fabric, 24 h post-treatment
Method: The acaricidal effect of each of carrot seed essential formulations and spearmint essential oil formulations, dissolved in ethanolpolyoxyethylene+polyoxypropylene (9:1) styrenated phenyl ether, was evaluated using a spray bioassay.
In brief, a spray bioassay was used to evaluate the efficacy of four experimental spray formulations against adult American house dust mites (Dermatophagoides farina) [Lee, J. H., J. R. Kim, Y. R. Koh & Y. J. Ahn. 2013. Contact and fumigant toxicity of Pinus densiflora needle hydrodistillate constituents and related compounds and efficacy of spray formulations containing the oil to Dermatophagoides farinae. Pest Manag. Sci. 69: 696702]. Each test solution was sprayed two times successively at 10 cm upwards onto the 5 cm diameter black cotton-fabric circle. After drying for 5 min, each fabric circle was placed onto the bottom section of a disposable Petri dish (5 cm diameter×1 cm height). Groups of 40-50 adult mites (both sexes, 7-10 days old) were placed separately onto the treated fabric circles, and each dish was sealed with the original tight-fitting lid. 2.5 g/L of the commercial acaricide d-phenothrin or permethnrin (cis:trans, 25:75) spray served as a positive control. […] Mortalities were determined 24 h post-treatment under a dissecting microscope (×20). […]

[5] = tested on: group 2 allergens (Der p II and Der f II); conditions: 3% tannic acid solution (wt/vol), compared with group 1; cited from earlier work
[6] = tested on: group 1 allergens (Der p I and Der f I); conditions: 3% tannic acid solution (wt/vol); cited from earlier work

SMILES	Inhibition of allergenicity, Dermatophagoides farina ([1]; compounds)	Neutralizing activity [2]	Inhibition of allergenicity, Dermatophagoides pteronyssinus ([3]; compounds)	further results
C=C(C)[C@@H]1CC=C(CO)CC1 [Perilla alcohol]	68.7	++	56.5	–
CC(C)=CCC/C(C)=C\CO [Nerol]	67.9	++	42.3	–
CC12CCC(CC1=O)C2(C)C (stereo not drawn) [Camphor]	78.2	++	77.9	–
CC(C)=CCC/C(C)=C/C=O [Geranial]	72.6	+++	68.1	–
C/C=C\c1cc(OC)c(OC)cc1OC [Beta-asarone]	64.9	++	68.5	–
C=CCc1cc(OC)c2c(c1)OCO2 [Myristicin]	76.3	+++	67.0	–
CC(C)=CCC/C(C)=C\C=O [Neral]	77.2	++	56.5	–
CC1(C)C(C=C(Cl)Cl)C1C(=O)OCc1cccc(Oc2ccccc2)c1 (stereo not drawn) [Permethrin]	–	–	–	mortality at 2500 µg/mL ([4]; Dermatophagoides, spearmint essential oil sprays, permethrin spray 2.5 g/L as positive control, read-out: Mortality (%, standard error)): 17.3 ± 3.3%
CC=Cc1ccc(OC)cc1 [Anethole]	62.3	++	52.1	–
CC(C)=CC1C(C(=O)OCc2cccc(Oc3ccccc3)c2)C1(C)C (stereo not drawn) [d-Phenothrin, d-phenothrin]	–	–	–	Mortality (%, standard error) ([4]; carrot seed essential oil sprays, d-phenothrin spray 2.5 g/L as positive control): 8.3 ± 1.7 d %
CC(C)c1ccccc1 [Cumene]	60.9	++	47.8	–
C=CCN=C=S [Allyl isothiocyanate]	82.1	+++	73.0	–
O=C(OC[C@H]1O[C@@H](OC(=O)c2cc(O)c(O)c(OC(=O)c3cc(O)c(O)c(O)c3)c2)[C@H](OC(=O)c2cc(O)c(O)c(OC(=O)c3cc(O)c(O)c(O)c3)c2)[C@@H](OC(=O)c2cc(O)c(O)c(OC(=O)c3cc(O)c(O)c(O)c3)c2)[C@@H]1OC(=O)c1cc(O)c(O)c(OC(=O)c2cc(O)c(O)c(O)c2)c1)c1cc(O)c(O)c(OC(=O)c2cc(O)c(O)c(O)c2)c1 [Tannic acid, reference compound]	–	–	–	Inhibition of allergenicity, Dermatophagoides farina ([1]; essential oils): 87.2; Denaturation of group 2 allergens [5]: somewhat less effective; Denaturation of group 1 allergens [6]: denatures; Inhibition of allergenicity, Dermatophagoides pteronyssinus ([3]; essential oils): 81.1
CC1=CCC2C(C1)C2(C)C (stereo not drawn) [Delta-3-carene]	77.9	+++	78.1	–
C=C(C)[C@@H]1CC[C@@H](C)C[C@H]1O [Isopulegol]	76.5	++	57.4	–
CC(C)=CCCC(C)CCO (stereo not drawn) [Citronellol]	61.2	++	49.2	–
C=CC(C)(O)CCC=C(C)CCC=C(C)C (stereo not drawn) [Nerolidol]	42.3	++	67.7	–
Cc1ccc(C(C)C)c(O)c1 [Thymol]	79.4	+++	67.9	–
C=C(C)[C@H](CO)CC=C(C)C [Lavandulol]	74.4	++	62.7	–
C=C(C)C1CC=C(C=O)CC1 (stereo not drawn) [Perillaldehyde]	79.1	+++	76.4	–
CC(C)c1ccc(C=O)cc1 [Cuminaldehyde]	80.4	+++	76.1	–
